{"source": "patent US20130071521A1", "about": "“REBAUDIOSIDE D SWEETENERS AND FOOD PRODUCTS SWEETENED WITH REBAUDIOSIDE D” (PEPSICO, INC., priority 2007, published 2013)", "key": {"[1]": {"settings": "cited from earlier work; for potency, times as sweet as sugar: commonly accepted potency figures"}, "[2]": {"settings": "Kinghorn (2002) page 138, cited from earlier work; for relative quality of taste, as compared to stevioside: stevioside is rated 0"}, "[3]": {"test_system": "sensory panel of twelve testers", "assay": "Sensory panel evaluation in water, noncarbonated beverage base and carbonated beverage base (Example 2)", "format": "in vivo", "parameters": "Sweetness / Bitterness: scale not given here", "settings": "for interaction between the sweetener and the three beverage bases (initial sweetness attribute plots): water, noncarbonated and carbonated beverage base", "experimental": "Potential beverage base effects on the initial sweetness perception of rebaudioside D were investigated by performing tests of three concentrations of rebaudioside D (Reb D) in water, in a noncarbonated beverage base, and in a carbonated beverage base, by a sensory panel of twelve testers. The numerical data generated by the sensory panel testers were then analyzed for their statistical significance.\nThe water employed for the tests of this Example comprised the characteristics as described in Example 1. The noncarbonated beverage base comprised purified water, and citric acid in an amount sufficient to decrease the pH of the noncarbonated beverage base to 3.1. The carbonated beverage base comprised purified water, carbon dioxide, and citric acid in an amount sufficient to decrease the pH of the noncarbonated beverage base to about 3.1. The initial sweetness characteristics of 606 parts per million (ppm) Reb D in water were compared to the initial sweetness characteristics of 606 ppm Reb D in noncarbonated beverage base and 606 ppm Reb D in carbonated beverage base.\nThe specific attributes tested by the sensory panel comprised sweetness, thickness, astringency, bitterness, numbing, cooling, licorice, burn/tingle and mouthcoat."}, "[4]": {"test_system": "sensory panel of twelve testers", "assay": "Sensory panel evaluation of initial sweetness characteristics of sweeteners in water (Example 1)", "format": "in vivo", "settings": "for initial sweetness perception: FIG. 2/FIG. 4; for initial bitterness perception: FIG. 3/FIG. 5", "experimental": "Sensory evaluations of different sweeteners at various concentrations were performed to provide comparative analysis of organoleptic characteristics of aqueous solutions of rebaudioside D, versus other sweeteners. The rebaudioside D was a stevia extract having a purity of at least 93% by weight rebaudioside D (Reb D). Initial sweetness characteristics of three concentrations of such Reb D in water were determined by a sensory panel of twelve testers. Sensory panels are well known to those of skill in the art, and comprise testers trained to evaluate the organoleptic attributes of comestibles. Typically, sensory panelists have been screened for their taste acuity and extensively trained in the use of standardized vocabulary to describe the appearance, aroma, flavor, mouthfeel and aftertaste of a wide variety of products, as well as scaling techniques to quantify the attributes. The numerical data generated by the sensory panel testers were then analyzed for their statistical significance.\nThe water employed in the tests of Example 1 comprised purified water as described in detail above, and having a pH of 7.0. The initial sweetness characteristics of 1200 parts per million (ppm) Reb D in water were compared to the initial sweetness characteristics of aqueous solutions of each of 1200 ppm rebaudioside A (Reb A), sucrose, aspartame and sucralose. The rebaudioside A was a stevia extract comprising a purity of 95% by weight rebaudioside A (PureCircle USA Inc., Oak Brook, Ill.). The specific attributes tested by the sensory panel comprised sweetness, thickness, astringency, bitterness, numbing, cooling and licorice.\nThe initial sweetness characteristics of other concentrations of rebaudioside D in water were also tested and compared to the same concentrations of rebaudioside A in water. […] FIGS. 2 through 5 illustrate the differences in the characteristics of sweetness and bitterness attributes between Reb D and Reb A."}, "[5]": {"settings": "360 ppm (sucrose 5.4 brix), FIGS. 16-18"}, "[6]": {"settings": "606 ppm (sucrose 8.5 brix), FIGS. 13-15"}, "[7]": {"settings": "CSD (carbonated beverage base), 360 ppm"}, "[8]": {"settings": "CSD (carbonated beverage base), 606 ppm"}, "[9]": {"settings": "High Level, 1200 ppm, averaged across all three beverage bases"}, "[10]": {"settings": "Low-Medium Level, 360 ppm, averaged across all three beverage bases"}, "[11]": {"settings": "Medium Level, 606 ppm, averaged across all three beverage bases"}, "[12]": {"settings": "NCB (noncarbonated beverage base), 360 ppm"}, "[13]": {"settings": "NCB (noncarbonated beverage base), 606 ppm"}}, "note": "Where a SMILES comes first, the peptide text is derived from it.", "data": [{"smiles": "COc1ccc(CCC(=O)c2c(O)cc(O[C@@H]3O[C@H](CO)[C@@H](O)[C@H](O)[C@H]3O[C@@H]3O[C@@H](C)[C@H](O)[C@@H](O)[C@H]3O)cc2O)cc1O", "note": "[Neohesperidin dihydrochalcone]", "values": [{"measurement": "potency, times as sweet as sugar", "setting": "[1]", "result": 300, "unit": "times as sweet as sugar"}]}, {"smiles": "C=C1C[C@@]23CC[C@H]4[C@@](C)(CCC[C@@]4(C)C(=O)O[C@@H]4O[C@H](CO)[C@@H](O)[C@H](O)[C@H]4O)[C@@H]2CC[C@]1(O[C@@H]1O[C@H](CO)[C@@H](O)[C@H](O)[C@H]1O[C@@H]1O[C@H](CO)[C@@H](O)[C@H](O)[C@H]1O)C3", "note": "[stevioside]", "values": [{"measurement": "potency, times as sweet as sugar", "setting": "[1]", "result": "100-250 times as sweet as sugar"}, {"measurement": "relative quality of taste, as compared to stevioside", "setting": "[2]", "result": 0}]}, {"smiles": "C[C@H](CC[C@@H](O[C@@H]1O[C@H](CO[C@@H]2O[C@H](CO)[C@@H](O)[C@H](O)[C@H]2O)[C@@H](O)[C@H](O)[C@H]1O[C@@H]1O[C@H](CO)[C@@H](O)[C@H](O)[C@H]1O)C(C)(C)O)[C@H]1CC[C@@]2(C)[C@@H]3CC=C4[C@@H](CC[C@H](O[C@@H]5O[C@H](CO[C@@H]6O[C@H](CO)[C@@H](O)[C@H](O)[C@H]6O)[C@@H](O)[C@H](O)[C@H]5O)C4(C)C)[C@]3(C)[C@H](O)C[C@]12C", "note": "[Mogroside V]", "values": [{"measurement": "potency, times as sweet as sugar", "setting": "[1]", "result": "100-300 times as sweet as sugar"}]}, {"smiles": "O=C1NS(=O)(=O)c2ccccc21", "note": "[Saccharin]", "values": [{"measurement": "potency, times as sweet as sugar", "setting": "[1]", "result": 300, "unit": "times as sweet as sugar"}]}, {"smiles": "COC(=O)[C@H](Cc1ccccc1)NC(=O)[C@@H](N)CC(=O)O", "note": "[Aspertame] (HELM PEPTIDE1{D.F.[CO[*:1]]}$$$$V2.0)", "values": [{"measurement": "potency, times as sweet as sugar", "setting": "[1]", "result": 200, "unit": "times as sweet as sugar"}]}, {"smiles": "CC1=CC(=O)NS(=O)(=O)O1", "note": "[Acesulfame-K]", "values": [{"measurement": "potency, times as sweet as sugar", "setting": "[1]", "result": 200, "unit": "times as sweet as sugar"}]}, {"smiles": "C=C1C[C@@]23CC[C@H]4[C@@](C)(CCC[C@@]4(C)C(=O)O[C@@H]4O[C@H](CO)[C@@H](O)[C@H](O)[C@H]4O)[C@@H]2CC[C@]1(O[C@@H]1O[C@H](CO)[C@@H](O)[C@H](O[C@@H]2O[C@H](CO)[C@@H](O)[C@H](O)[C@H]2O)[C@H]1O[C@@H]1O[C@H](CO)[C@@H](O)[C@H](O)[C@H]1O)C3", "note": "[Reb A, rebaudioside A, reference compound]", "values": [{"measurement": "interaction between the sweetener and the three beverage bases (initial sweetness attribute plots)", "setting": "[3]; [5]", "result": "no significant interaction"}, {"measurement": "interaction between the sweetener and the three beverage bases (initial sweetness attribute plots)", "setting": "[3]; [6]", "result": "no significant interaction"}, {"measurement": "Bitterness", "setting": "[3]; [7]", "result": 20.5}, {"measurement": "Sweetness", "setting": "[3]; [7]", "result": 50.7}, {"measurement": "Bitterness", "setting": "[3]; [8]", "result": 28.2}, {"measurement": "Sweetness", "setting": "[3]; [8]", "result": 66.0}, {"measurement": "Bitterness", "setting": "[3]; [9]", "result": 45.1}, {"measurement": "Sweetness", "setting": "[3]; [9]", "result": 70.6}, {"measurement": "Bitterness", "setting": "[3]; [10]", "result": 21.0}, {"measurement": "Sweetness", "setting": "[3]; [10]", "result": 52.6}, {"measurement": "Bitterness", "setting": "[3]; [11]", "result": 33.4}, {"measurement": "Sweetness", "setting": "[3]; [11]", "result": 63.5}, {"measurement": "Bitterness", "setting": "[3]; [12]", "result": 24.4}, {"measurement": "Sweetness", "setting": "[3]; [12]", "result": 52.3}, {"measurement": "Bitterness", "setting": "[3]; [13]", "result": 29.8}, {"measurement": "Sweetness", "setting": "[3]; [13]", "result": 68.5}, {"measurement": "Bitterness", "setting": "[3]; Water, 360 ppm", "result": 21.0}, {"measurement": "Sweetness", "setting": "[3]; Water, 360 ppm", "result": 52.6}, {"measurement": "Bitterness", "setting": "[3]; Water, 606 ppm", "result": 33.4}, {"measurement": "Sweetness", "setting": "[3]; Water, 606 ppm", "result": 63.5}, {"measurement": "sweetness relative to sucrose", "setting": "[1]; background statement", "result": "approximately 200 times sweeter than sucrose"}, {"measurement": "potency, times as sweet as sugar", "setting": "[1]", "result": "150-200 times as sweet as sugar"}, {"measurement": "initial sweetness perception", "setting": "[4]; 360 ppm in water", "result": "about 60"}, {"measurement": "initial bitterness perception", "setting": "[4]; 360 ppm in water", "result": "about 38"}, {"measurement": "initial sweetness perception", "setting": "[4]; 1200 ppm in water", "result": "about 68"}, {"measurement": "initial bitterness perception", "setting": "[4]; 1200 ppm in water", "result": "about 85"}, {"measurement": "sweetness (value reported by Kinghorn)", "setting": "[2]", "result": 242}, {"measurement": "relative quality of taste, as compared to stevioside", "setting": "[2]", "result": "+2"}]}, {"smiles": "OC[C@H]1O[C@H](O[C@]2(CCl)O[C@H](CCl)[C@@H](O)[C@@H]2O)[C@H](O)[C@@H](O)[C@H]1Cl", "note": "[Sucralose]", "values": [{"measurement": "potency, times as sweet as sugar", "setting": "[1]", "result": 600, "unit": "times as sweet as sugar"}]}, {"smiles": "COC(=O)[C@H](Cc1ccccc1)NC(=O)[C@H](CC(=O)O)NCCC(C)(C)C", "note": "[Neotame]", "values": [{"measurement": "potency, times as sweet as sugar", "setting": "[1]", "result": "8,000 times as sweet as sugar"}]}, {"smiles": "OC[C@H]1O[C@@](CO)(O[C@H]2O[C@H](CO)[C@@H](O)[C@H](O)[C@H]2O)[C@@H](O)[C@@H]1O", "note": "[sucrose, reference compound]", "values": [{"measurement": "interaction between the sweetener and the three beverage bases (initial sweetness attribute plots)", "setting": "[3]; [5]", "result": "no significant interaction"}, {"measurement": "interaction between the sweetener and the three beverage bases (initial sweetness attribute plots)", "setting": "[3]; [6]", "result": "no significant interaction"}]}]}
